Source: patent US9969726B2, “Metabotropic glutamate receptor negative allosteric modulators (NAMS) and uses thereof” (Sanford-Burnham Medical Research Institute, priority 2014, dated 2018)
Where two headings read alike, the source gives them in different places.

Assays:
rat mGlu3 receptor = rat mGlu3 receptor (Rattus norvegicus (Rat), UniProt P31422); assay: mGlu3 in vitro GIRK thallium flux assay; type: cell-based; settings: NAM; 2.5 min compound incubation; EC80 glutamate; HEK-293 GIRK cells
Procedure, shortened: (§1)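 Cells expressing rat mGlu2 or mGlu3 with GIRK, plated overnight at 37 °C. Test compounds (0.3% DMSO, 10-point 1:3 series) preincubated 2.5 or 60 min, then thallium buffer plus EC80 glutamate added. Fluorescence slope 5–15 s after addition, normalised to vehicle and maximal agonist, fitted by four-parameter logistic.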

rat mGlu2 receptor = rat mGlu2 receptor (Rattus norvegicus (Rat), UniProt P31421); assay: mGlu2 in vitro GIRK thallium flux assay; type: cell-based; settings: NAM, EC80 glutamate, HEK-293 GIRK cells
Procedure, shortened: as §1

[1] = 2.5 min compound incubation, read-out: mGlu2 EC50 (μM) (2.5 min)
[2] = read-out: mGlu2 EC50 (μM) (60 min), 60 min compound incubation
[3] = mGlu2 EC50 (μM) (60 min), 60 min compound incubation

rat mGlu2 receptor, sequence (P31421 19-872): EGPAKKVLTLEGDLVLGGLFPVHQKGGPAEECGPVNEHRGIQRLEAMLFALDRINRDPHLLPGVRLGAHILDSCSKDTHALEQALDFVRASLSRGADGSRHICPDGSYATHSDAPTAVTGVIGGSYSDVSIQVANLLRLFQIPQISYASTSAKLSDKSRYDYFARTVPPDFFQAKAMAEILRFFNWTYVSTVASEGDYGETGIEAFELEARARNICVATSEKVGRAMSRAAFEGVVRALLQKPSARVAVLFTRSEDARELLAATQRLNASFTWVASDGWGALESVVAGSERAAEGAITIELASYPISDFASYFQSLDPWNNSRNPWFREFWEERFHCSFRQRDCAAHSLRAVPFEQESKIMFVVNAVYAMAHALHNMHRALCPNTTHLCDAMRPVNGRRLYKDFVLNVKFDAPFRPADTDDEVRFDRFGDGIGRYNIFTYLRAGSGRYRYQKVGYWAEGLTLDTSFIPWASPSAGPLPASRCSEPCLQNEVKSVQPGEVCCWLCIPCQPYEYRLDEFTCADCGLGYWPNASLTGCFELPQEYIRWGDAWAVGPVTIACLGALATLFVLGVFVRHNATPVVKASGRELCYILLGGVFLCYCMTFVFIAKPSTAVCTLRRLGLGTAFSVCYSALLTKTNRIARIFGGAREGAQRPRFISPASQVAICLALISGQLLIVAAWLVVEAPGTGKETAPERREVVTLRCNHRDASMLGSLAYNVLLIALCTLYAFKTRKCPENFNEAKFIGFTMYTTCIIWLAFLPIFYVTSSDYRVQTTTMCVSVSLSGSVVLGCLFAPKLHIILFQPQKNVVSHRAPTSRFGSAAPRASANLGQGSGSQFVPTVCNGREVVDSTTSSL
rat mGlu3 receptor, sequence (P31422 23-879): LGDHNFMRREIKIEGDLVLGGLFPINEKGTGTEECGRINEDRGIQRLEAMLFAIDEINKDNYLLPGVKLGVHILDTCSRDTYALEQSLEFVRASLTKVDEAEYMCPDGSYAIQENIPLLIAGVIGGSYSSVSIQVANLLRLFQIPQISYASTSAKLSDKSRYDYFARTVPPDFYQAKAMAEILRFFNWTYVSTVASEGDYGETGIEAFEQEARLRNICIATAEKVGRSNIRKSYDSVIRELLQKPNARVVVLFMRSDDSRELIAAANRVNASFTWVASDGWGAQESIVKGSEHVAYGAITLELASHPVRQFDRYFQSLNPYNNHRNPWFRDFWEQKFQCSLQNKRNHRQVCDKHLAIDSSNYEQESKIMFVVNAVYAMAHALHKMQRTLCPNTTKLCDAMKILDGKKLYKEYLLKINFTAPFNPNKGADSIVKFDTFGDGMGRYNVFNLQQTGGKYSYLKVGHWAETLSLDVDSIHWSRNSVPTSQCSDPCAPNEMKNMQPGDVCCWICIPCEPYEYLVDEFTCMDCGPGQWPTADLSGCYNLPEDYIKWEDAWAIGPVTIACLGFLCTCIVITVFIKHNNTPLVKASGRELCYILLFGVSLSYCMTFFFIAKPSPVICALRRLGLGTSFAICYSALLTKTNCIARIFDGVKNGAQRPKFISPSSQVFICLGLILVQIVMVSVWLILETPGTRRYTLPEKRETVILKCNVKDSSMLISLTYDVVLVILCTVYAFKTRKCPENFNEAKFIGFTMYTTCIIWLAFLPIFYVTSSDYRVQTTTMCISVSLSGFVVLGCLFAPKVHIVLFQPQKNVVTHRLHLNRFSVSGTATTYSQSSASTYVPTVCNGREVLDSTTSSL

Structure (SMILES): O=C1CC(c2ccnc(-c3ccccc3F)c2)=Nc2ccc(C(F)(F)F)cc2N1 [Example 200, 4-(2-(2-Fluorophenyl)pyridin-4-yl)-8-(trifluoromethyl)-1,3-dihydro-2H-benzo[b][1,4]diazepin-2-one]
- EC50 (rat mGlu3 receptor): 0.75 µM
- EC50 (rat mGlu2 receptor; [1]): > 10 µM
- EC50 (rat mGlu2 receptor; [2]): 0.22 µM

Structure (SMILES): Cc1cc(-c2ccoc2)nc(-c2cccc(-c3cc(F)cc(C(=O)O)c3)c2)n1 [Example 121, 5-Fluoro-3′-(4-(furan-3-yl)-6-methylpyrimidin-2-yl)-[1,1′-biphenyl]-3-carboxylic Acid]
- EC50 (rat mGlu3 receptor): 2.21 µM
- EC50 (rat mGlu2 receptor; [1]): 0.35 µM
- EC50 (rat mGlu2 receptor; [3]): 0.31 µM

Structure (SMILES): COc1ccc(-c2nc(-c3cccc(-c4cccc(C(=O)O)c4)c3)cs2)cc1 [Example 31, 3-{3-[2-(4-Methoxyphenyl)-1,3-thiazol-4-yl]phenyl}benzoic acid]
- EC50 (rat mGlu3 receptor): 3.09 µM
- EC50 (rat mGlu2 receptor; [1]): 1.23 µM
- EC50 (rat mGlu2 receptor; [3]): 0.67 µM

Structure (SMILES): O=C(O)c1cc(-c2ccc(-c3csc(-c4ccccc4)n3)s2)ccc1F [Example 10, 2-Fluoro-5-(5-(2-phenylthiazol-4-yl)thiophen-2-yl)benzoic acid]
- EC50 (rat mGlu3 receptor): > 10 µM
- EC50 (rat mGlu2 receptor; [1]): > 10 µM
- EC50 (rat mGlu2 receptor; [3]): > 10 µM

Structure (SMILES): NS(=O)(=O)c1cccc(-c2cccc(-c3csc(-c4ccccc4)n3)c2)c1 [Example 2, 3′-(2-Phenylthiazol-4-yl)biphenyl-3-sulfonamide]
- EC50 (rat mGlu3 receptor): > 30 µM
- EC50 (rat mGlu2 receptor; [1]): > 30 µM
- EC50 (rat mGlu2 receptor; [3]): > 10 µM

Structure (SMILES): Cc1cc(-c2ccoc2)nc(-c2cccc(-c3cccc(C(=O)O)c3)c2)n1 [Example 119, 3′-(4-(Furan-3-yl)-6-methylpyrimidin-2-yl)biphenyl-3-carboxylic Acid]
- EC50 (rat mGlu3 receptor): 0.35 µM
- EC50 (rat mGlu2 receptor; [1]): 0.05 µM
- EC50 (rat mGlu2 receptor; [2]): 0.06 µM

Structure (SMILES): Cc1cc2c(cc1C(F)(F)F)NC(=O)CC(c1cccc(C#CCO)c1)=N2 [Example 203, 4-[3-(3-Hydroxy-prop-1-ynyl)-phenyl]-7-methyl-8-trifluoromethyl-1,3-dihydro-benzo[b][1,4]diazepin-2-one]
- EC50 (rat mGlu3 receptor): 0.39 µM
- EC50 (rat mGlu2 receptor; [1]): 0.65 µM
- EC50 (rat mGlu2 receptor; [2]): 0.02 µM

Structure (SMILES): O=C(O)c1cc(-c2ccc(-c3csc(-c4ccccc4)n3)cc2)ccc1F [Example 17, 4-Fluoro-4′-(2-phenylthiazol-4-yl)biphenyl-3-carboxylic Acid]
- EC50 (rat mGlu3 receptor): > 30 µM
- EC50 (rat mGlu2 receptor; [1]): > 30 µM
- EC50 (rat mGlu2 receptor; [2]): > 30 µM

Structure (SMILES): O=C(O)c1cccc(-c2cccc(-c3csc(-c4ccc(Cl)nc4)n3)c2)c1 [Example 35, 3′-(2-(6-Chloropyridin-3-yl)thiazol-4-yl)biphenyl-3-carboxylic Acid]
- EC50 (rat mGlu3 receptor): > 10 µM
- EC50 (rat mGlu2 receptor; [1]): 3.83 µM
- EC50 (rat mGlu2 receptor; [3]): 0.27 µM

Structure (SMILES): O=C(O)c1ccc(-c2cccc(-c3nc(-c4ccccc4)n(-c4ccccc4)n3)c2)cc1 [Example 60, 3′-(1,5-Diphenyl-1H-1,2,4-triazol-3-yl)-[1,1′-biphenyl]-4-carboxylic Acid]
- EC50 (rat mGlu3 receptor): 5.3 µM
- EC50 (rat mGlu2 receptor; [1]): > 10 µM
- EC50 (rat mGlu2 receptor; [3]): > 10 µM

Structure (SMILES): CSc1ccc(-c2cc(C(F)(F)F)nc(-c3cccc(-c4ccc(F)c(C(=O)O)c4)c3)n2)cc1 [Example 103, 4-Fluoro-3′-(4-(4-(methylthio)phenyl)-6-(trifluoromethyl)pyrimidin-2-yl)biphenyl-3-carboxylic Acid]
- EC50 (rat mGlu3 receptor): 4.54 µM
- EC50 (rat mGlu2 receptor; [1]): 4.69 µM
- EC50 (rat mGlu2 receptor; [2]): 0.99 µM

Structure (SMILES): O=C1CC(c2ccnc(Cl)c2)=Nc2ccc(-c3ccc(Cl)cc3)cc2N1 [Example 186, 8-(4-Chlorophenyl)-4-(2-chloropyridin-4-yl)-1,3-dihydro-2H-benzo[b][1,4]diazepin-2-one]
- EC50 (rat mGlu3 receptor): 1.36 µM
- EC50 (rat mGlu2 receptor; [1]): 2.42 µM
- EC50 (rat mGlu2 receptor; [2]): 1.01 µM

Structure (SMILES): O=C(O)c1cc(-c2ccc(-c3nc(-c4ccc(C(F)(F)F)nc4)cc(C(F)(F)F)n3)cc2)ccc1Cl [Example 83, 4-Chloro-4′-(4-(trifluoromethyl)-6-(6-(trifluoromethyl)pyridin-3-yl)pyrimidin-2-yl)biphenyl-3-carboxylic Acid]
- EC50 (rat mGlu3 receptor): > 10 µM
- EC50 (rat mGlu2 receptor; [1]): 2.95 µM
- EC50 (rat mGlu2 receptor; [2]): 1.23 µM

Structure (SMILES): CC(C)n1nc(-c2cccc(-c3cccc(C(=O)O)c3)c2)nc1-c1ccccc1 [Example 64, 3′-(1-Isopropyl-5-phenyl-1H-1,2,4-triazol-3-yl)-[1,1′-biphenyl]-3-carboxylic acid]
- EC50 (rat mGlu3 receptor): > 10 µM
- EC50 (rat mGlu2 receptor; [1]): > 10 µM
- EC50 (rat mGlu2 receptor; [3]): > 30 µM

Structure (SMILES): O=C(O)c1cc(-c2cccc(-c3csc(-c4ccccc4)n3)c2)ccc1Cl [Example 24, 4-Chloro-3′-(2-phenylthiazol-4-yl)biphenyl-3-carboxylic Acid]
- EC50 (rat mGlu3 receptor): 0.79 µM
- EC50 (rat mGlu2 receptor; [1]): 0.57 µM
- EC50 (rat mGlu2 receptor; [3]): 0.8 µM

Structure (SMILES): O=C(O)c1ccc(-c2cccc(-c3csc(-c4ccccc4)n3)c2)c(Cl)c1 [Example 26, 2-Chloro-3′-(2-phenylthiazol-4-yl)biphenyl-4-carboxylic Acid]
- EC50 (rat mGlu3 receptor): > 10 µM
- EC50 (rat mGlu2 receptor; [1]): > 30 µM
- EC50 (rat mGlu2 receptor; [3]): > 30 µM

Structure (SMILES): O=C(O)c1cc(-c2cccc(-c3nccc(-c4ccoc4)n3)c2)ccc1F [Example 118, 4-Fluoro-3′-(4-(furan-3-yl)pyrimidin-2-yl)biphenyl-3-carboxylic Acid]
- EC50 (rat mGlu3 receptor): 1.38 µM
- EC50 (rat mGlu2 receptor; [1]): 0.26 µM
- EC50 (rat mGlu2 receptor; [2]): 1.01 µM

Structure (SMILES): O=C(O)c1ccc(-c2ccc(-c3nc(-c4ccc(C(F)(F)F)nc4)cc(C(F)(F)F)n3)cc2)cc1 [Example 81, 4′-(4-(Trifluoromethyl)-6-(6-(trifluoromethyl)pyridin-3-yl)pyrimidin-2-yl)biphenyl-4-carboxylic Acid]
- EC50 (rat mGlu3 receptor): 2.13 µM
- EC50 (rat mGlu2 receptor; [1]): 3.78 µM
- EC50 (rat mGlu2 receptor; [2]): 0.44 µM

Structure (SMILES): O=C(O)c1cccc(-c2cccc(-c3nc(-c4ccoc4)n(-c4ccccc4)n3)c2)c1 [Example 59, 3′-(5-(Furan-3-yl)-1-phenyl-1H-1,2,4-triazol-3-yl)-[1,1′-biphenyl]-3-carboxylic acid]
- EC50 (rat mGlu3 receptor): > 10 µM
- EC50 (rat mGlu2 receptor; [1]): > 10 µM
- EC50 (rat mGlu2 receptor; [3]): 3.78 µM

Structure (SMILES): O=C(O)c1cccc(-c2cccc(-c3cc(-c4ccccc4)[nH]n3)c2)c1 [Example 68, 3′-(5-Phenyl-1H-pyrazol-3-yl)-[1,1′-biphenyl]-3-carboxylic Acid]
- EC50 (rat mGlu3 receptor): > 10 µM
- EC50 (rat mGlu2 receptor; [1]): > 10 µM
- EC50 (rat mGlu2 receptor; [2]): > 30 µM

Structure (SMILES): O=C(O)c1cc(F)cc(-c2cccc(-c3nc(-c4ccccc4)cc(C(F)(F)F)n3)c2)c1 [Example 104, 5-Fluoro-3′-(4-phenyl-6-(trifluoromethyl)pyrimidin-2-yl)biphenyl-3-carboxylic Acid]
- EC50 (rat mGlu3 receptor): 1.9 µM
- EC50 (rat mGlu2 receptor; [1]): 1.44 µM
- EC50 (rat mGlu2 receptor; [2]): 0.24 µM

Structure (SMILES): O=C(O)c1cc(-c2cccc(-c3nc(-c4cccnc4F)cc(C(F)(F)F)n3)c2)ccc1F [Example 97, 4-Fluoro-3′-(4-(2-fluoropyridin-3-yl)-6-(trifluoromethyl)pyrimidin-2-yl)biphenyl-3-carboxylic Acid]
- EC50 (rat mGlu3 receptor): 2.21 µM
- EC50 (rat mGlu2 receptor; [1]): 1.07 µM
- EC50 (rat mGlu2 receptor; [2]): 0.36 µM

Structure (SMILES): Cc1cc2c(cc1C(F)(F)F)NC(=O)CC(c1cccc(CCCO)c1)N2 (racemic) [Example 154, 4-(3-(3-Hydroxypropyl)phenyl)-7-methyl-8-(trifluoromethyl)-4,5-dihydro-1H-benzo[b][1,4]diazepin-2(3H)-one]
- EC50 (rat mGlu3 receptor): > 10 µM
- EC50 (rat mGlu2 receptor; [1]): > 10 µM
- EC50 (rat mGlu2 receptor; [3]): 4.43 µM

Structure (SMILES): O=C(O)c1cc(-c2cccc(-c3nc(-c4ccccc4)n(-c4ccccc4)n3)c2)ccc1F [Example 51, 3′-(1,5-Diphenyl-1H-1,2,4-triazol-3-yl)-4-fluoro-[1,1′-biphenyl]-3-carboxylic acid]
- EC50 (rat mGlu3 receptor): 5.8 µM
- EC50 (rat mGlu2 receptor; [1]): > 10 µM
- EC50 (rat mGlu2 receptor; [3]): > 10 µM

Structure (SMILES): COc1ccc(-c2ccc3c(c2)NC(=O)CC(c2ccnc(Cl)c2)=N3)cc1OC [Example 195, 4-(2-Chloropyridin-4-yl)-8-(3,4-dimethoxyphenyl)-1,3-dihydro-2H-benzo[b][1,4]diazepin-2-one]
- EC50 (rat mGlu3 receptor): 1.39 µM
- EC50 (rat mGlu2 receptor; [1]): 3.83 µM
- EC50 (rat mGlu2 receptor; [2]): 2.62 µM
